Reference: US20160074374A1, “CORRECTORS ACTING THROUGH MSD1 OF CFTR PROTEIN” (VERTEX PHARMACEUTICALS INCORPORATED, priority 2013, published 2016)
“Also recorded” adds a separate entry of the source.

Legend:
mutant CFTR = target: T1, mutant CFTR (Homo sapiens, UniProt P13569, E92K); experiment: Ussing chamber forskolin-stimulated chloride transport in Fisher Rat Thyroid cells expressing CFTR mutants; assay type: cell-based; settings: Corr4a 15 μM
T1 construct: expressed in transfected cells
Experimental: Ussing chamber techniques with Fisher Rat Thyroid cells that are stably transfected with the indicated form of CFTR are used to record the transepithelial current (IT) resulting from CFTR-mediated chloride transport (Van Goor, et al., 2009, PNAS, 106: 18825-30). Standard conditions for Ussing chamber electrophysiological with different forms of CFTR measured forskolin (10 μM)-stimulated chloride transport that peaked at 205.5 μA/cm2 for normal CFTR.

ΔF508-CFTR = ΔF508-CFTR (Homo sapiens, UniProt P13569, DEL508-508); design: primary cultures of human bronchial epithelial cells isolated from subjects with CF; host or cells: primary human bronchial epithelial cells (Van Goor 2011); CF patients in a 28-day study (Clancy 2012); settings: bronchial epithelial cells from CF subjects; cited from earlier work
V232D-CFTR = V232D-CFTR (Homo sapiens, UniProt P13569, V232D); settings: cited from earlier work
[1] = target: T2, N-terminal CFTR fragments (Homo sapiens, UniProt P13569); experiment: Steady-state accumulation of CFTR fragments, western blot, HEK293 cells; assay type: cell-based; settings: bortezomib 10 μM
T2 construct: Indicated CFTR fragments were generated via introduction of a stop codon after the specified residue; expressed in transfected cells; host or cells: HEK293, transient, pcDNA3.1(+)-CFTR derivatives
Experimental: Steady-state levels of CFTR and its mutants are determined by western blot analysis. HEK293 cells are transiently transfected with the indicated plasmids (Grove, et al., 2011, Mol Biol Cell, 22: 301-14). The transfected cells are allowed to recover for approximately 18 hrs before addition of DMEM and then supplemented with lumacaftor or DMSO (control). The cells are incubated with the correctors for 24 hrs before isolating the cells for western blot analysis. The harvested cells are diluted with 2×SDS sample buffer (100 mM Tris-HCl (pH 6.8)/4% SDS/0.05% Bromophenol Blue/20% glycerol), sonicated, and heated at 37° C. prior to resolving the proteins on SDS-PAGE gels. The proteins are transferred to nitrocellulose membranes and the membranes are probed with the designated antibodies. Tubulin is used to indicate loading controls.
A set of CFTR fragments with domain boundaries that permitted them to accumulate in unstable or stable states are expressed in HEK293 cells, and the effect of 5 μM lumacaftor on the accumulation of different fragments is determined. As a point of reference, the impact of the proteasome inhibitor bortezomib on CFTR fragment accumulation is also measured.
Cells are treated for 4 hours with bortezomib or 18 hours at 37° C. with lumacaftor. The amount of CFTR fragment accumulation is determined by immunoblot.
To identify regions of CFTR required for lumacaftor activity, different length CFTR fragments were expressed in HEK-293 cells and their steady-state accumulation and half-life were quantified in biochemical assays (FIGS. 1A and B; FIG. 2). Since CFTR folding initiates cotranslationally and channel assembly is completed post-translationally (Higgins, 1992, Annual Review of Cell Biology, 8:67-113), CFTR fragments which may resemble folding intermediates have been used to study CFTR biogenesis. The underlying rationale is that differences in accumulation or half-life between different length CFTR fragments are believed to reflect differences in the stability of the protein conformation and resistance to endoplasmic reticulum associated degradation (ERAD). […] Differences in accumulation and halflife of CFTR fragments have been used successfully to identify Hsp70- and calnexin-dependent steps in CFTR folding and degradation pathways (Farinha and Amaral, 2005, Mol Cell Biol, 25:5242-52; Lukacs and Verkman, […], EMBO Journal, 13:6076-86; Meacham et al., 1999, EMBO Journal, 18:1492-1505; Okiyoneda et al., 2004, Mol Biol Cell, 15:563-574), to identify defective interactions between MSD1, NBD1 and MSD2 as an underlying cause of premature degradation of ΔF508-CFTR (Cui et al., 2007, J Mol Biol, 365:981-994; Du and Lukacs, 2009, Molecular Biology of the Cell, 20:1903-1915; Younger et al., 2006, Cell, 126:571-582), and to identify MSD2 as the site of action of the CFTR corrector, Corr-4a.

[2] = compared to CFTR^430 and CFTR^653

Sequence of ΔF508-CFTR (P13569 with tags, fused parts or gaps DEL508-508): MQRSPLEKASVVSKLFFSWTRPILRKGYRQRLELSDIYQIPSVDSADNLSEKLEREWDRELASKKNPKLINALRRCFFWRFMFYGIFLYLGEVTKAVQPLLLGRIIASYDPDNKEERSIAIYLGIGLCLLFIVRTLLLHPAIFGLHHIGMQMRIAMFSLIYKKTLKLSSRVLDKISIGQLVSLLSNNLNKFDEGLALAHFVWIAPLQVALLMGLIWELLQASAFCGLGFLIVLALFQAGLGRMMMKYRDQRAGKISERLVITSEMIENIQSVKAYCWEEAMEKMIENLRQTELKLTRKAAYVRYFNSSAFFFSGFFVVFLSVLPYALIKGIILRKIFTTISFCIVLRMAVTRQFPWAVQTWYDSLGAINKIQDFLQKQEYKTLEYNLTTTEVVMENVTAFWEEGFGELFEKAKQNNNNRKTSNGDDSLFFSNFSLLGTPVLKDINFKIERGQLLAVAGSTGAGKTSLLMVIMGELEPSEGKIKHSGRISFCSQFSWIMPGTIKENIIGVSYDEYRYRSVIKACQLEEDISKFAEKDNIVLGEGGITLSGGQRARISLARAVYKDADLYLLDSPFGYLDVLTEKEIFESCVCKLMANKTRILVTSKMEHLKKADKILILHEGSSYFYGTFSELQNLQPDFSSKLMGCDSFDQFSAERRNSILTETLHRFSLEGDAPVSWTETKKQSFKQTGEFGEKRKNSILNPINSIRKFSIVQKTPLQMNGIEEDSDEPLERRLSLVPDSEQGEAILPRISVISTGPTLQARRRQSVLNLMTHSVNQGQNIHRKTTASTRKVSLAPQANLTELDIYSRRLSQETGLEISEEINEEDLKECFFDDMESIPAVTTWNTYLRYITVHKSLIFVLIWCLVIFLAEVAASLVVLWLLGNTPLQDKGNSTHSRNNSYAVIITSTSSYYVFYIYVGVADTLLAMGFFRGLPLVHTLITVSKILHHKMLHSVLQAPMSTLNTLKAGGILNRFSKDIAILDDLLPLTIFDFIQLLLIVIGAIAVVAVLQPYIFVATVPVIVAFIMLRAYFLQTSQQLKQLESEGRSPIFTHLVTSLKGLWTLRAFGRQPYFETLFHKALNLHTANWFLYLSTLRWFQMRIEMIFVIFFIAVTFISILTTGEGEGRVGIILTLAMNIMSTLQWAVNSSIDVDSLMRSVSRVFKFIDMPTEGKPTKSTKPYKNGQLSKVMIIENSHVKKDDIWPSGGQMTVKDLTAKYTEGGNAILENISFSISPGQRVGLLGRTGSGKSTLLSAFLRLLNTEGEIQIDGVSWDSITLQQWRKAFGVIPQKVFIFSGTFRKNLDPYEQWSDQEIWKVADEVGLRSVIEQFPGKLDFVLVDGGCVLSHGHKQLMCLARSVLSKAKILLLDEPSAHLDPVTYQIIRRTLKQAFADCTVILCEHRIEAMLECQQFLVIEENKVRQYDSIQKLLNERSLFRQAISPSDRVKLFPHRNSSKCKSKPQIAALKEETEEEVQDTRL
Sequence of V232D-CFTR (P13569 whole entry V232D, the tested form may be a part): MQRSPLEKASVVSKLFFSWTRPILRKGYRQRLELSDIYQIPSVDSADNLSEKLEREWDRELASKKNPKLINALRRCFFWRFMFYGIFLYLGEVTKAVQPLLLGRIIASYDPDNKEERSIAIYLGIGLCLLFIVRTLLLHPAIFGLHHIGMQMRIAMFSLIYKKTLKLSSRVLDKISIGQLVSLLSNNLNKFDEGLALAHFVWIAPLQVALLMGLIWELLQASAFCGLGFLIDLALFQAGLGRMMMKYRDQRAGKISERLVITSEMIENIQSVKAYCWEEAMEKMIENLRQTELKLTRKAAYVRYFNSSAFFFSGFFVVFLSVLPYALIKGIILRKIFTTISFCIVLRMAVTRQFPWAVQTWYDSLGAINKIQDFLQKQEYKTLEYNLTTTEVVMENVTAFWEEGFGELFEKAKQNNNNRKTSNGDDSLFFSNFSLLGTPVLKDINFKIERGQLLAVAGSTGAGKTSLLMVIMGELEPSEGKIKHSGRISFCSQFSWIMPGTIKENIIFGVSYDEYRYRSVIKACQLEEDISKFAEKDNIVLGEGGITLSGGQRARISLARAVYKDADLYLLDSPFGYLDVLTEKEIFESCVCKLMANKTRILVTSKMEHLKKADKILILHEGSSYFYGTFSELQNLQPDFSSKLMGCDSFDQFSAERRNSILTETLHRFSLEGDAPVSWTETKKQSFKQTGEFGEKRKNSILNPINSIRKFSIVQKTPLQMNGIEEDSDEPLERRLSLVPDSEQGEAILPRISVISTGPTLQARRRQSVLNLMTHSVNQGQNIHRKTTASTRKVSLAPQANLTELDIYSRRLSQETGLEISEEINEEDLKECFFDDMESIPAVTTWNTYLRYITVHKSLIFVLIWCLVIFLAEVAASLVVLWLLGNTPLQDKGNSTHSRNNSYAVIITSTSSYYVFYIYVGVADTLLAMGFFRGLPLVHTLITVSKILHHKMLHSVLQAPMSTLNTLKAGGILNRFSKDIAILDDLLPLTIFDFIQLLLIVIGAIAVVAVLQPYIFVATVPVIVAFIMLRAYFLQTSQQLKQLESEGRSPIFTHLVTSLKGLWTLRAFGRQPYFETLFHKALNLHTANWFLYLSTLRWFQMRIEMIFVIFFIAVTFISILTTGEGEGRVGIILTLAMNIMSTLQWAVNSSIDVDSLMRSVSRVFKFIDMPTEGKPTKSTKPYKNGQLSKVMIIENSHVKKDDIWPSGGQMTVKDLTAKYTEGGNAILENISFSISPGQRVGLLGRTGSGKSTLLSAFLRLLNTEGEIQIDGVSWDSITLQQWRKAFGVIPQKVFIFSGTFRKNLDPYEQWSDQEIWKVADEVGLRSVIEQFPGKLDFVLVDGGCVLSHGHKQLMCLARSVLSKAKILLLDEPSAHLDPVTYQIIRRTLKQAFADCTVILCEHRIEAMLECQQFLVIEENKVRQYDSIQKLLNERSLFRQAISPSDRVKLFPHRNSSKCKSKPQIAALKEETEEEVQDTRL
T1 sequence (P13569 whole entry E92K): as the sequence (P13569 whole entry V232D, the tested form may be a part) above, with E92K, D232V counted along it

Row | restoration of E92K-CFTR function (mutant CFTR) | increase in accumulation of CFTR^370 ([1]; 4 hours) [fold] | increase in accumulation of CFTR^530 ([1]; 4 hours) [fold] | sensitivity of CFTR^430 accumulation to proteasome inhibition ([1]; 4 hours) | sensitivity of CFTR^653 accumulation to proteasome inhibition ([1]; 4 hours) | effect of proteasome inhibition on CFTR^530 [1, 2] | Compound | ΔF508-CFTR function (ΔF508-CFTR) | V232D-CFTR biogenesis and function (V232D-CFTR) | effect of proteasome inhibition on CFTR^370 [1, 2]
1 | could not restore | – | – | – | – | – | COc1ccc(Cl)cc1Nc1nc(-c2sc(NC(=O)c3ccccc3)nc2C)cs1 [Corr-4a] | partially restored | to normal levels | –
2 | – | 10 | 10 | relatively insensitive | relatively insensitive | more susceptible | CC(C)C[C@H](NC(=O)[C@H](Cc1ccccc1)NC(=O)c1cnccn1)B(O)O [bortezomib] | – | – | more susceptible; also recorded: able to increase the stability
